# Measurements published in PubChem BioAssay AID1996.
# Conditions: buffer; pH 7.4; 200.0 µM
row,SMILES,solubility kinetic [µg/mL]
1,CC1CCCCC1NC(=O)Cn1cnc2sccc2c1=O (stereo not drawn),> 45.8
2,O=C(Cc1ccccc1)NCc1cccnc1,33.8
3,CCCC(=O)OCC(=O)c1[nH]c(C)c(C(C)=O)c1C,> 39.8
4,O=C(CNS(=O)(=O)c1cccs1)N1CCCCC1,> 43.3
5,CCOc1ccccc1NC(=O)Nc1cc(S(=O)(=O)N(C)C)ccc1C,0.6
6,CN(C(=O)CN1C(=O)NC2(CCCc3ccccc32)C1=O)C1CCCCC1 (stereo not drawn),> 55.4
7,CC1CCc2c(sc(NC(=O)c3ccco3)c2C(=O)O)C1 (stereo not drawn),> 45.8
8,Fc1ccccc1NC(=S)NCc1ccc(Cl)cc1,11.2
9,CCOCC(=O)OCC(=O)NC12CC3CC(CC(C3)C1)C2,> 44.3
10,Cc1cccc(C)c1NC(=O)N1CC(C)OC(C)C1 (stereo not drawn),> 39.4
11,CN1CCC(N(C)C(=O)NC2CCCCC2)CC1,> 38
12,O=C(NCc1nc2ccccc2[nH]1)C1CCCCC1,> 38.6
13,Cc1c[nH]c2ccccc12,6.8
14,Cc1ccc(C(=O)NC(=S)N2CCN(C)CC2)cc1Br,47.4
15,O=C(c1cc(-c2cccc(O)c2)on1)N1CCCCCC1,40.8
16,COc1ccccc1C(=O)NCC1(c2ccccc2)CCCC1,8.1
17,CC(=O)c1cccc(NC(=O)C(C)OC(=O)CCc2nc3ccccc3c(=O)[nH]2)c1 (stereo not drawn),> 61.1
18,CCOC(=O)C1=C(C)NC(C)=C(C(=O)OCC)C1C(=O)OCC(=O)NCc1ccco1,> 65.2
19,O=C(CSc1cccc[n+]1[O-])C12CC3CC(CC(C3)C1)C2,> 45.5
20,c1csc(-c2cc(N3CCCCC3)c3ccccc3n2)c1,1.1
21,Cc1ccc(C2(C)NC(=O)N(CC(=O)N3CCN(S(=O)(=O)c4cccc([N+](=O)[O-])c4)CC3)C2=O)cc1 (stereo not drawn),12.7
22,CCOc1ccc(C2NC(=S)NC3=C2CCc2ccccc23)cc1 (stereo not drawn),10.9
23,COc1ccccc1NC(=S)N(Cc1ccccc1)Cc1cccnc1,45.8
24,O=S(=O)(Nc1cccnc1)c1ccc(F)cc1,> 37.8
25,CC1CCN(C(=O)CN(Cc2ccc(F)cc2)S(C)(=O)=O)CC1,> 51.4

row,SMILES,solubility kinetic [µg/mL]
1,Cc1cc(Nc2cccc(Cl)c2Cl)n2ncnc2n1,> 44.1
2,CCOC(=O)C(=O)Nc1cc(C)on1,> 29.7
3,Cc1ccccc1OC(=O)c1cccnc1,28.4
4,O=C(Cc1cccs1)NCCc1ccc(Cl)cc1,40.5
5,Cc1c(Cl)cccc1NC(=O)c1cccnc1,> 37
6,Cc1cc(C)cc(NC(=O)C2CCN(c3cnccn3)CC2)c1,13.7
7,CC(=O)c1cccc(NC(=O)COC(=O)CCNS(=O)(=O)c2ccccc2)c1,> 60.7
8,O=C(c1ccc(S(=O)(=O)Nc2ccccc2)cc1)N1CCC1,> 47.5
9,CCN(CC)c1ccc(C=Nc2ccc(C)cc2C)c(O)c1,6.4
10,Cc1ccccc1Nc1ncc(C#N)c(N)n1,31.6
11,CC(=O)Nc1ccc(Sc2ccccc2C(=O)O)cn1,> 43.2
12,O=C(O)CCN1C(=O)c2ccc(NC(=O)CCc3ccccc3)cc2C1=O,> 55
13,CCc1nc2sc3c(c2c(=S)[nH]1)CC(C)(C)OC3,1.9
14,CNCc1c(OCc2ccccc2)ccc2ccccc12.Cl,44.9
15,CN(C)CCN1CC(O)=C(c2nc3ccccc3s2)C1=N,31.5
16,COc1ccc(C=O)cc1CSc1ccccn1,38.2
17,Cc1ccccc1CC(=O)NCC1CCCCC1,12.9
18,COC(=O)[C@H](Cc1ccccc1)NC(=O)NCc1ccccc1,45.4
19,CSc1nsc(NC(=O)Nc2ccccc2)n1,21.2
20,Cn1c2ccc(F)cc2c2ncn(CC3CCCO3)c(=O)c21 (stereo not drawn),4
21,Cc1cc(C(C)(C)C)cc(C)c1COC(=O)c1cccnc1,1.7
22,COc1nc(-c2ccccc2)ncc1S(=O)(=O)c1ccccc1,< 0.3
23,FC(F)Oc1ccc(NC(=S)NCc2ccco2)cc1Cl,> 49.9
24,Cc1csc2c(NC3CCN(Cc4ccccc4)CC3)ncnc12,41.5
25,COc1cc2ncnc(NCc3ccc(C)o3)c2cc1OC,35

row,SMILES,solubility kinetic [µg/mL]
1,O=c1[nH]cnc2c1ncn2[C@@H]1O[C@H](CO)[C@@H](O)[C@H]1O,> 40.2
2,CN(C)c1c(F)cc(C(=O)NCc2ccccc2)cc1F,36
3,Cc1[nH]c2ccc(C(=O)N3CCCCC3)cc2c1C,> 38.5
4,CCc1ccc2nc(N3CCN(C(=O)C(C)(C)C)CC3)sc2c1,2
5,O=C(Nc1cccnc1)OC1CCCC1,29.5
6,O=C(O)CN1CCN(Cc2ccc(F)cc2)C1=O,> 37.8
7,CN(C)CCCNc1nc(-c2ccccc2)c2c(c1C#N)CC(C)(C)OC2,47.3
8,COc1ccc(N=Cc2c(O)n(C)c(=O)n(C)c2=O)cc1,11.1
9,O=C(Nc1nnc(-c2cccnc2)o1)c1cccc([N+](=O)[O-])c1,> 46.7
10,O=C(Nc1ccc(Cl)cc1)N1CCN(c2ncccn2)CC1,44.4
11,CC1=C(C)CC(C(=O)NCc2ccccn2)C(C(=O)O)C1 (stereo not drawn),> 43.3
12,Fc1ccccc1-c1nc(NC2CCCC2)c2ccccc2n1,11.1
13,CC(NS(=O)(=O)c1ccccc1Cl)C1CC2CCC1C2 (stereo not drawn),1.1
14,CC(C)NC(=O)c1ccc(COc2cc(Cl)ccc2Cl)o1,2.8
15,CC1NC(=O)NC1CCCCCC(=O)Nc1ccc(F)c(Cl)c1 (stereo not drawn),> 51.3
16,CC(=O)N1CCN(C(=O)c2oc3ccccc3c2C)CC1,> 42.9
17,Cc1ccc(C(=O)N2CC(=O)NC(=O)C2)cc1,29.6
18,O=[N+]([O-])c1ccc2nc(N3CCCC3)sc2c1,2.8
19,CCCCOc1ccc(-c2c(C#N)c(N)[nH]c(=S)c2C#N)cc1,35.6
20,O=C(Cc1cccc2ccccc12)Nc1cc(Cl)ccc1C(=O)O,> 51
21,COc1ccc(Cc2n[nH]c(=S)n2N)cc1OC,> 39.9
22,CCNC(=S)N1CCn2cccc2C1c1cccnc1 (stereo not drawn),41
23,O=S(=O)(NCc1c(Cl)cccc1Oc1ccccc1)c1ccccc1,3
24,Nc1nc(NCc2ccco2)nc(N2CCCC2)c1[N+](=O)[O-],> 45.6
25,Cc1cc(C(=O)CN2C(=O)C(=O)N(CCC3=CCCCC3)C2=O)c(C)n1C,11.5

row,SMILES,solubility kinetic [µg/mL]
1,COc1ccc(-c2cnc3n2CCCCC3)cc1,> 36.3
2,COC(=O)c1sc(-c2cccs2)cc1N,7.2
3,O=S(=O)(c1ccc(=S)[nH]c1)N1CCCC1,> 36.6
4,CC(=O)Nc1cccc(NC(=S)Nc2cccc(Cl)c2C)c1,44.9
5,Cc1ccc(NS(=O)(=O)c2cccc3cccnc23)c(Cl)c1,1.1
6,Cc1ccc(C)c(Nc2nc(-c3ccncc3)nc3ccccc23)c1,< 0.2
7,CCc1ccccc1NC(=O)NCCN1CCCCC1,> 41.3
8,O=C(CN1C(=O)NC2(CCCCCCC2)C1=O)Nc1cccc(Br)c1,8.2
9,CCCCc1ccc(NC(=S)N2CCCC2)cc1,9.2
10,Cc1ccc2c(c1)N(CC(=O)NCc1ccco1)C(=O)C(C(C)C)O2 (stereo not drawn),22.8
11,CCS(=O)(=O)Nc1ccccc1C(N)=O,> 34.2
12,O=C(c1ccc(F)cc1)N1CCCC(C(=O)N2CCCCC2)C1 (stereo not drawn),> 47.8
13,COc1ccc(CCNC(=O)COC(=O)C2CC2)cc1,25.4
14,Cn1c(=O)c2c(nc(SCC(=O)N3CCOCC3)n2C)n(C)c1=O,> 53
15,COc1ccc(-c2nc(=S)c3c(n2Cc2cccnc2)CC(C)(C)OC3)cc1,> 59
16,O=C(/C=C/c1ccco1)NCc1ccco1,> 32.6
17,O=C(COc1ccccc1Cl)N1CCNC1=O,> 38.2
18,CCCc1cc(=O)[nH]c(SC/C=C/c2ccccc2)n1,1.9
19,COc1cc(/C=C2\N=C(C)OC2=O)cc(OC)c1OC,25.3
20,O=C(NC1CCCCC1)c1cc(-c2ccc(O)cc2)on1,< 0.3
21,COCc1cc(=O)[nH]c(-c2ccccc2OC(F)(F)F)n1,> 45
22,O=C(CCN1C(=O)c2ccccc2S1(=O)=O)Nc1ccc(Cl)cc1,0.9
23,CCCCC(=O)NCc1ccccc1Cl,> 33.9
24,O=C(NC1CCCc2ccccc21)c1cn2ccccc2n1 (stereo not drawn),39.7
25,CC(C)(C)c1csc(CS(=O)(=O)c2ccccn2)n1,> 44.5

row,SMILES,solubility kinetic [µg/mL]
1,O=C(COc1ccccc1C(=O)O)Nc1cccc2ccccc12,> 48.2
2,O=C(O)c1cc(-c2ccco2)nc2cc3ccccc3cc12,> 43.4
3,Cc1cc(C(=O)COc2ccc([N+](=O)[O-])cc2)c(C)n1C1CC1,2.2
4,O=C(Nc1ncccc1O)c1c(O)c2ccccc2[nH]c1=O,11.1
5,Cc1cccc(NC(=O)c2cc3c(s2)-c2c(C)cccc2OC3)n1,< 0.4
6,CC(CN1CCOCC1)OC(=O)c1ccccc1Cl.Cl (stereo not drawn),> 48
7,CC(=O)c1ccc(NC(=S)N2CCN(c3ccccn3)CC2)cc1,3.1
8,CCS(=O)(=O)N1CCN=C1SCc1ccccc1,> 42.7
9,Cc1ccc(C(=O)N2c3ccccc3CC2C)o1 (stereo not drawn),31.6
10,CC1CC1C(=O)Nc1cc(C(F)(F)F)ccc1N1CCOCC1 (stereo not drawn),40.9
11,N#Cc1ccccc1Oc1ccccc1C=O,31.6
12,COc1ccccc1CNC(=O)COC(=O)c1cccs1,8.4
13,COCCNC(=O)CSc1ncnc2sc(-c3ccccc3)cc12,1
14,O=[N+]([O-])c1ccc(Cl)cc1N1CCCC1,2.5
15,Cc1nc2ccc(NC(=S)N3CCCC3)cc2nc1C,41.7
16,NC(=O)c1ccc(NC(=O)CCNC(=O)c2ccco2)cc1,41.2
17,COCCNC(=O)c1ccc2c(c1)ncn2-c1cccc(C)c1,> 46.4
18,CN1CCCNc2nc3ccccc3nc21,> 32.1
19,CN(C(=O)/C=C/c1ccco1)c1ccccc1C(=O)O,> 40.7
20,O=C(c1cccc(OCc2ccccc2)c1)N1CCOCC1,42.9
21,CC(=O)NC(CC(=O)OCC(=O)Nc1cc(S(=O)(=O)N2CCCCC2)ccc1C)c1ccccc1 (stereo not drawn),> 75.2
22,COc1cc(OC)c(C(=O)OCC(=O)Nc2ccc(S(=O)(=O)N3CCOCC3)cc2)cc1OC,9.6
23,Cc1ccccc1NC(=O)C1CC(=O)N(Cc2ccccc2)C1 (stereo not drawn),> 46.3
